Where two headings read alike, the source gives them in different places.
Key:
[1] = target: human D1 receptor (Homo sapiens (Human), UniProt P21728); experiment: Human D1 Receptor PAM Assay (cAMP HTRF, potentiator mode); assay type: cell-based
From the text: The PAM activity of the compounds of the present invention may be measured essentially as described in Svensson et al., An Allosteric Potentiator of the Dopamine D1 Receptor Increases Locomotor Activity in Human D1 Knock-in Mices without Casusing Stereotypy or Tachyphylaxis. J. Pharmacol. Exp. Ther. (2017) 360:117-128.
More specifically, HEK293 cells that stably express the human D1 receptor (Accession number NM_000794) are generated by gene transduction using the pBABE-bleo retroviral vector and selected with Zeocin™ (InvivoGen). At approximately 80% confluency, the cells are harvested using TrypLE™ Express (Gibco), suspended in FBS plus 8% DMSO, and stored in liquid nitrogen. On the day of the assay, cells are thawed and resuspended in STIM buffer (Hanks Balanced Salt Solution supplemented with 0.1% BSA, 20 mM HEPES, 500 μM IBMX, and 100 μM ascorbic acid).
Test compound is serially diluted (1:2) with DMSO into assay plates (ProxiPlate-384 Plus, PerkinElmer) using acoustic dispensing (Labcyte) to provide 20 concentrations for full response curves. Test compound (80 nL) is added to 5 μL STIM buffer containing 2000 cells, and 5 μL of a 2×concentration dopamine solution in STIM buffer that will generate an EC20 level response (24 nM in stock solution, or 12 nM final) and a final DMSO concentration in the well of 0.8%. Plates are incubated at room temperature for a total reaction time of 60 min.
cAMP production is quantified using HTRF® detection (Cisbio) according to the manufacturer's instructions. Generally, lysis buffer containing anti-cAMP cryptate (5 μL) and D2-conjugate (from HTRF® kit)(5 μL) is added to the wells, plates are incubated for an additional 60-90 min, and the time-resolved fluorescence is detected using an EnVision™ plate reader (PerkinElmer). Fluorescence data is converted to cAMP concentrations using a cAMP standard curve and analyzing using a 4-parameter non-linear logistic equation (Genedata Screener, version 13.0.5-standard). For potentiator mode concentration-response curves, results are expressed as percent of the window between a response at EC20 concentration of dopamine alone (normalized to 0%) and the maximum response to dopamine (defined by response to 5 μM dopamine, final concentration, normalized as 100%). Absolute EC50 values are calculated based on the maximum and minimum responses of the control agonist (dopamine). The % Potentiation (% Top) is determined from the fitted top of the concentration response curve.

[2] = target: CYP3A4 (Homo sapiens (Human), UniProt P08684); experiment: Calculation of fraction of compound cleared through CYP3A4 metabolism (fmCYP3A4); details: fmCYP × fm3A4_RCP (worst-case fm3A4_RCP = 1)
From the text: The fraction of overall clearance of a drug via oxidative metabolism by the cytochrome P450 (CYP) is an important indication for potential victim drug-drug interaction mediated adverse effects. (see generally Ogu, Chris C., and Maxa, Jan L., Drug interactions due to cytochrome P450, BUMC Proceedings 2000; 13:421-423.) The greater fraction of overall clearance for a given drug that goes though a CYP oxidation pathway, particularly exclusively through a single CYP, as for example CYP3A4, the greater the potential that the drug may be found susceptible to undesired victim drug-drug interactions when used in therapy. To determine the fmCYP3A4 (the fraction of metabolism via CYP3A4), the fraction of P450-mediated oxidation, (fmCYP) is first determined in human hepatocytes. The relative contribution of CYP3A4 mediated oxidation (fmCYP3A4_RCP) over other P450 s is then determined using a recombinant CYP phenotyping assay (RCP). The fmCYP3A4 is calculated using the following equation:
fmCYP3A4=fmCYP×fmCYP3A4_RCP
The renal and biliary excretion of test compounds is tested in bile-duct cannulated dogs essentially according to Burkey J L, et al. (2002) Disposition of LY333531, a selective protein kinase C beta inhibitor, in the Fischer 344 rat and beagle dog. Xenobiotica 32:1045-1052. […] The fraction of compound cleared through CYP3A4 metabolism is calculated using the equation below: […]

[3] = Plasma and Brain Levels after oral dosing; assay type: in vivo, mouse; details: for Kp uu at 1 h: ratio Cu,brain vs Cu,plasma
Description: Example 7, 2-(2-chloro-6-fluoro-phenyl)-1-[(1S,3R)-6-fluoro-3-(hydroxymethyl)-5-(3-hydroxy-3-methyl-butyl)-1-methyl-3,4-dihydro-1H-isoquinolin-2-yl]ethenone, was orally dosed to male mouse from 3 mg/kg to 60 mg/kg in fed condition, and the plasma and brain concentration was determined 1 hr post-dose. The fraction unbound of the compound was determined in vitro as described previously (Zamek-Gliszczynski M J, et al., Validation of 96-well equilibrium dialysis with non-radiolabeled drug for definitive measurement of protein binding and application to clinical development of highly-bound drugs, J. Pharm. Sci. (2011) 100: 2498-2507). The ratio (Kpuu) of unbound brain concentration (Cu, brain) vs. unbound plasma concertation (Cu, plasma) was determined as described previously (Raub T J, et al., Brain Exposure of Two Selective Dual CDK4 and CDK6 Inhibitors and the Antitumor Activity of CDK4 and CDK6 Inhibition in Combination with Temozolomide in an Intracranial Glioblastoma Xenograft. Drug Metab. Dispos. (2015) 43:1360-71). The data presented below in Table 3 for Example 7 are averages from 3 animals at each dose. “Con.” refers to concentration.

human D1 receptor, sequence (P21728 whole entry): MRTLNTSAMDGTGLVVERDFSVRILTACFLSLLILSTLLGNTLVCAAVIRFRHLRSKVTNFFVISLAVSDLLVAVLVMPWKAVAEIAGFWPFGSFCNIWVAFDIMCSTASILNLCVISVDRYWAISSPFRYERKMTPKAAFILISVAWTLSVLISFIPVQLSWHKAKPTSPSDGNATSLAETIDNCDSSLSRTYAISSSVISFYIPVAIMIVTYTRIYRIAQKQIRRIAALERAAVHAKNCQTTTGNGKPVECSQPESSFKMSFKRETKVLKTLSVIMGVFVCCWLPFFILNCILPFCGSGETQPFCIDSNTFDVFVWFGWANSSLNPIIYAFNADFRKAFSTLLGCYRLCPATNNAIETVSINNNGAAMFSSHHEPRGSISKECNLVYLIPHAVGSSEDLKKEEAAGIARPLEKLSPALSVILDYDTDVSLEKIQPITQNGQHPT

With `C[C@H]1c2ccc(F)c(CCC(C)(C)O)c2C[C@H](CO)N1C(=O)Cc1c(F)cccc1Cl` [Example 7, 2-(2-chloro-6-fluoro-phenyl)-1-[(1S,3R)-6-fluoro-3-(hydroxymethyl)-5-(3-hydroxy-3-methyl-butyl)-1-methyl-3,4-dihydro-1H-isoquinolin-2-yl]ethanone] the EC50 ([1]; HEK293 cells expressing human D1, with EC20 dopamine (12 nM final), cAMP, read-out: Abs EC50) was 10.2 ± 1.4 nM, the “% Top (% Potentiation)” value ([1]; fitted top, 0% = EC20 dopamine alone, 100% = 5 μM dopamine) was 90.9% and the fmCYP3A4 [2] was 0.322. It also gave a concentration at 1 h ([3]; brain, 3 mg/kg oral, 1 hr post-dose, male mouse, fed, read-out: Brain con.) of 18 nM, a concentration at 1 h ([3]; brain, 6 mg/kg oral, 1 hr post-dose, male mouse, fed, read-out: Brain con.) of 45.1 nM and a concentration at 1 h ([3]; brain, 10 mg/kg oral, 1 hr post-dose, male mouse, fed, read-out: Brain con.) of 84.9 nM. It also gave a concentration at 1 h ([3]; brain, 30 mg/kg oral, 1 hr post-dose, male mouse, fed, read-out: Brain con.) of 557 nM, a concentration at 1 h ([3]; brain, 60 mg/kg oral, 1 hr post-dose, male mouse, fed, read-out: Brain con.) of 1290 nM and a Kp uu at 1 h ([3]; male, mouse, 3 mg/kg oral, 1 hr) of 0.126. It also gave a Kp uu at 1 h ([3]; male, mouse, 6 mg/kg oral, 1 hr) of 0.143, a Kp uu at 1 h ([3]; male, mouse, 10 mg/kg oral, 1 hr) of 0.122 and a Kp uu at 1 h ([3]; male, mouse, 30 mg/kg oral, 1 hr) of 0.194. The Kp uu at 1 h ([3]; male, mouse, 60 mg/kg oral, 1 hr) was 0.248, the concentration at 1 h ([3]; male, mouse, unbound brain concentration, 3 mg/kg oral, 1 hr, read-out: Cu, brain) was 0.448 nM and the concentration at 1 h ([3]; male, mouse, unbound brain concentration, 6 mg/kg oral, 1 hr, read-out: Cu, brain) was 1.12 nM. For the same molecule, the concentration at 1 h ([3]; male, mouse, unbound brain concentration, 10 mg/kg oral, 1 hr, read-out: Cu, brain) was 2.11 nM, the concentration at 1 h ([3]; male, mouse, unbound brain concentration, 30 mg/kg oral, 1 hr, read-out: Cu, brain) was 13.9 nM and the concentration at 1 h ([3]; male, mouse, unbound brain concentration, 60 mg/kg oral, 1 hr, read-out: Cu, brain) was 32.1 nM. It also gave a concentration at 1 h ([3]; male, mouse, unbound plasma concentration, 3 mg/kg oral, 1 hr, read-out: Cu, plasma) of 4.97 nM, a concentration at 1 h ([3]; male, mouse, unbound plasma concentration, 6 mg/kg oral, 1 hr, read-out: Cu, plasma) of 9.62 nM and a concentration at 1 h ([3]; male, mouse, unbound plasma concentration, 10 mg/kg oral, 1 hr, read-out: Cu, plasma) of 17.1 nM. For the same molecule, the concentration at 1 h ([3]; male, mouse, unbound plasma concentration, 30 mg/kg oral, 1 hr, read-out: Cu, plasma) was 70.1 nM, the concentration at 1 h ([3]; male, mouse, unbound plasma concentration, 60 mg/kg oral, 1 hr, read-out: Cu, plasma) was 128 nM and the concentration at 1 h ([3]; plasma, 3 mg/kg oral, 1 hr post-dose, male mouse, fed, read-out: Plasma con.) was 353 nM. It also gave a concentration at 1 h ([3]; plasma, 6 mg/kg oral, 1 hr post-dose, male mouse, fed, read-out: Plasma con.) of 682 nM, a concentration at 1 h ([3]; plasma, 10 mg/kg oral, 1 hr post-dose, male mouse, fed, read-out: Plasma con.) of 1210 nM and a concentration at 1 h ([3]; plasma, 30 mg/kg oral, 1 hr post-dose, male mouse, fed, read-out: Plasma con.) of 4980 nM. For the same molecule, the concentration at 1 h ([3]; plasma, 60 mg/kg oral, 1 hr post-dose, male mouse, fed, read-out: Plasma con.) was 9080 nM.

From patent publication US20230382869A1, “Phenyl-3,4-dihydroisoquinolin-2(1h)-yl-ethan-1-one derivatives as dopamine d1receptor positive allosteric modulators” (Eli Lilly and Company, priority 2020, published 2023)
